“And” between values parts separate entries of the source, which are not always exact repeats. Equal values may be shown once. “Also recorded” adds a separate entry of the source. Read-outs that look alike come from different tables or passages of the source.
Legend:
[1] = system: HaCaT keratinocytes cells; assay: In-vitro cytotoxicity test, Neutral Red uptake; assay type: cell-based, Human
Experimental: (§1) Method: The in-vitro cytotoxicity test assessed cell viability based on Neutral Red uptake, a dye that accumulates in lysosomes and decreases in response to membrane damage. HaCaT keratinocytes were cultured in DMEM with 10% calf serum and incubated at 37°C, 5% CO₂. Cells were seeded in 96-well plates, treated with eight concentrations of the 5a4, and incubated for 24 hours. After washing, cells were exposed to Neutral Red medium for 3 hours, followed by washing and destaining. Optical density (OD540) was measured using a fluorescence reader, and IC50 values were calculated using Phototox Version 2.0, comparing treated wells to untreated controls.^[10]

[2] = In-vitro cytotoxicity test, Neutral Red uptake; assay type: cell-based, Human; conditions: human, HaCaT keratinocytes, 24 hours, read-out: Cell viability (% as compared to the negative control), replicates
Experimental: as §1

[3] = system: Staphylococcus aureus efflux mutants and clinical strains
[4] = system: Staphylococcus aureus ATCC 25923 (Reference, basal); assay: MIC, broth microdilution (CLSI); assay type: cell-based; conditions: ATCC25923
[5] = Solution‐state stability test in MH‐II broth; assay type: physicochemical; conditions: 512–1 µg mL^−1, 37 °C for a day, centrifuged
Experimental: Before accessing the minimal inhibitory concentration (MIC), each phenazinium derivative was subjected to a solution‐state stability test. For this experiment, each derivative was solubilized in DMSO to achieve a primary stock solution (20 mg mL^−1). This stock was further diluted in MilliQ to achieve a working stock solution (10 mg mL^−1). […] The tubes were placed in an incubator at 37 °C for a day and later centrifuged at 25 000 rpm for 25 min.

[6] = system: SA 1199‐B (norA overexpressing); assay: microbe, parasite or virus in culture; assay type: cell-based, Staphylococcus aureus; conditions: from Table 1
[7] = system: HaCaT keratinocytes cells; assay: Micronucleus assay; assay type: cell-based, Human
[8] = Fluorescence intensity measurement of phenazinium derivatives; assay type: physicochemical; conditions: 1 µg mL^−1
Experimental: A stock solution of synthesized phenazinium compounds (10 mg mL^-1) was prepared in DMSO solvent. […] An aliquot (100 μL) of this working stock was then added to the black flat bottomed, half-area, 96-well microplates (CELLSTAR, Greiner Bio-One, France). The plate was then placed on a fluorescence spectrometer (Tecan, Infinite […], Lyon, France) and scanned for emission spectra (560-800 nm) at a constant excitation […].

[9] = system: SA 1199 (Wild‐type, basal); assay: MIC, broth microdilution (CLSI); assay type: cell-based; conditions: Staphylococcus aureus
[10] = 0.025 µg/ml, with UVA/visible Irradiation
[11] = 0.05 µg/ml, with UVA/visible Irradiation
[12] = 0.1 µg/ml, with UVA/visible Irradiation
[13] = 0.25 µg/ml, with UVA/visible Irradiation

In the case of CCCCNc1ccc2nc3cc(NCCOC)c(N)cc3[n+](CCC)c2c1 [5a4], the “cytotoxicity on HaCaT (in words)” value [1] was “dose‐dependent cytotoxicity”, the “Cell viability (% as compared to the negative control), replicates” value ([1]; 0.00025 µg/ml, 24 hours) was 98.73% and 100.16% and 98.52% and the “Cell viability (% as compared to the negative control), replicates” value ([1]; 0.0005 µg/ml, 24 hours) was 98.86% and 96.05%. For the same molecule, the “Cell viability (% as compared to the negative control), replicates” value ([1]; 0.001 µg/ml, 24 hours) was 86.83% and 87.15%, the “Cell viability (% as compared to the negative control), replicates” value ([1]; 0.025 µg/ml, 24 hours) was 80.96% and 90.16% and the “Cell viability (% as compared to the negative control), replicates” value ([1]; 0.05 µg/ml, 24 hours) was 71.87% and 67.22%. The “Cell viability (% as compared to the negative control), replicates” value ([1]; 0.1 µg/ml, 24 hours) was 60.91% and 61.94%, the “Cell viability (% as compared to the negative control), replicates” value ([1]; 0.25 µg/ml, 24 hours) was 43.67% and 45.37% and the “Cell viability (% as compared to the negative control), replicates” value ([1]; 0.5 µg/ml, 24 hours) was 36.42% and 39.37%. For the same molecule, the “Cell viability (% as compared to the negative control), replicates” value ([1]; 1 µg/ml, 24 hours) was 8.29% and 13.84%, the “Cell viability (% as compared to the negative control), replicates” value ([1]; 2.5 µg/ml, 24 hours) was 7.17% and 8.13% and the IC50 ([1]; Homo sapiens, HaCaT, Neutral Red uptake, 24 hours, read-out: IC50 (HaCaT cell viability)) was 0.1 to 0.25 µg/mL. It also gave a viability at 24 h, 0.00025 µg/ml ([2]; 0.00025 µg/ml) of over 96%, a viability at 24 h, 0.0005 µg/ml ([2]; 0.0005 µg/ml) of 98.9% and a viability at 24 h, 0.001 µg/ml ([2]; 0.001 µg/ml) of 87.3%. For the same molecule, the viability at 24 h, 0.025 µg/ml ([2]; 0.025 µg/ml) was 80%, the viability at 24 h, 0.05 µg/ml ([2]; 0.05 µg/ml) was 66.6% and the viability at 24 h, 0.1 µg/ml ([2]; 0.1 µg/ml) was 57.8%. For the same molecule, the viability at 24 h, 0.25 µg/ml ([2]; 0.25 µg/ml) was 43.4%, the viability at 24 h, 0.5 µg/ml ([2]; 0.5 µg/ml) was 37.3% and the viability at 24 h, 1 µg/ml ([2]; 1 µg/ml) was 11.6%. The viability at 24 h, 2.5 µg/ml ([2]; 2.5 µg/ml) was about 7.91%, the “Efflux detection method 5a4” value ([3]; strain ATCC25923) was “Negative” and the “Efflux detection method 5a4” value ([3]; strain ATCC25923_EtBr) was “Positive”. The “Efflux detection method 5a4” value ([3]; strain BIOS-H1) was “Negative”, the “Efflux detection method 5a4” value ([3]; strain BIOS-H2) was “Negative” and the “Efflux detection method 5a4” value ([3]; strain BIOS-H3) was “Negative”. The “Efflux detection method 5a4” value ([3]; strain BIOS-H5) was “Negative”, the “Efflux detection method 5a4” value ([3]; strain BIOS-H6) was “Negative” and the “Efflux detection method 5a4” value ([3]; strain BIOS-H12) was “Negative”. The “Efflux detection method 5a4” value ([3]; strain BIOS-H13) was “Negative”, the “Efflux detection method 5a4” value ([3]; strain BIOS-H17) was “Negative” and the “Efflux detection method 5a4” value ([3]; strain BIOS-H20) was “Negative”. For the same molecule, the “Efflux detection method 5a4” value ([3]; strain BIOS-H21) was “Negative”, the “Efflux detection method 5a4” value ([3]; strain BIOS-H22) was “Negative” and the “Efflux detection method 5a4” value ([3]; strain BIOS-H25) was “Negative”. The “Efflux detection method 5a4” value ([3]; strain BIOS-H28) was “Negative”, the “Efflux detection method 5a4” value ([3]; strain BIOS-H29) was “Negative” and the “Efflux detection method 5a4” value ([3]; strain BIOS-H30) was “Negative”. The “Efflux detection method 5a4” value ([3]; strain BIOS-H32) was “Negative”, the “Efflux detection method 5a4” value ([3]; strain BIOS-V21) was “Negative” and the “Efflux detection method 5a4” value ([3]; strain BIOS-V31) was “Negative”. For the same molecule, the “Efflux detection method 5a4” value ([3]; strain BIOS-V60) was “Negative”, the “Efflux detection method 5a4” value ([3]; strain BIOS-V61) was “Negative” and the “Efflux detection method 5a4” value ([3]; strain BIOS-V62) was “Negative”. For the same molecule, the “Efflux detection method 5a4” value ([3]; strain BIOS-V74) was “Negative”, the “Efflux detection method 5a4” value ([3]; strain BIOS-V75) was “Negative” and the “Efflux detection method 5a4” value ([3]; strain BIOS-V85) was “Negative”. The “Efflux detection method 5a4” value ([3]; strain BIOS-V118) was “Negative”, the “Efflux detection method 5a4” value ([3]; strain BIOS-V128) was “Negative” and the “Efflux detection method 5a4” value ([3]; strain BIOS-V147) was “Negative”. The “Efflux detection method 5a4” value ([3]; strain BIOS-V151) was “Negative”, the “Efflux detection method 5a4” value ([3]; strain BIOS-V156) was “Negative” and the “Efflux detection method 5a4” value ([3]; strain BIOS-V157) was “Negative”. For the same molecule, the “Efflux detection method 5a4” value ([3]; strain BIOS-V158) was “Negative”, the “Efflux detection method 5a4” value ([3]; strain BIOS-V203) was “Negative” and the “Efflux detection method 5a4” value ([3]; strain BIOS-V245) was “Negative”. For the same molecule, the “Efflux detection method 5a4” value ([3]; strain BIOS-V250) was “Negative”, the “Efflux detection method 5a4” value ([3]; strain BIOS-V257) was “Negative” and the “Efflux detection method 5a4” value ([3]; strain BIOS-V279) was “Negative”. For the same molecule, the “Efflux detection method 5a4” value ([3]; strain BIOS-V295) was “Negative”, the “Efflux detection method 5a4” value ([3]; strain SA-1199) was “Negative” and the “Efflux detection method 5a4” value ([3]; strain SA-1199B) was “Positive”. For the same molecule, the “Efflux detection method 5a4” value ([3]; strain SA-K1712) was “Negative”, the “Efflux detection method 5a4” value ([3]; strain SA-K1748) was “Positive” and the “Efflux detection method 5a4” value ([3]; strain SA-K1758) was “Negative”. For the same molecule, the “Efflux detection method 5a4” value ([3]; strain SM 1) was “Positive”, the “Efflux detection method 5a4” value ([3]; strain SM 2) was “Negative” and the “Efflux detection method 5a4” value ([3]; strain SM 3) was “Negative”. The “Efflux detection method 5a4” value ([3]; strain SM 4) was “Negative”, the “Efflux detection method 5a4” value ([3]; strain SM 5) was “Negative” and the “Efflux detection method 5a4” value ([3]; strain SM 6) was “Negative”. For the same molecule, the “Efflux detection method 5a4” value ([3]; strain SM 7) was “Negative”, the “Efflux detection method 5a4” value ([3]; strain SM 8) was “Negative” and the MIC [4] was 2 µg/mL. For the same molecule, the “Solution state stability (concentration at which visible precipitation was observed)” value [5] was “excellent solubility and stability; also recorded: Stable”, the “MIC difference between NorA wild‐type, overexpressing and deleted mutants” value [6] was “fourfold or greater difference” and the “genotoxicity (in words)” value [7] was “no clear genotoxicity”. For the same molecule, the “% PI (Proliferative Index)” value [7, 10] was 99.2%, the “MNC (micronucleated cells)” value [7, 10] was 11 ± 1.4 per 1,000 and the “% PI (Proliferative Index)” value ([7]; 0.025 µg/ml, without S9 mix) was 99.8%. The “MNC (micronucleated cells)” value ([7]; 0.025 µg/ml, without S9 mix) was 9 ± 1.4 per 1,000, the “% PI (Proliferative Index)” value [7, 11] was 94.6% and the “MNC (micronucleated cells)” value [7, 11] was 9 ± 2.1 per 1,000. The “% PI (Proliferative Index)” value ([7]; 0.05 µg/ml, without S9 mix) was 88.2%, the “MNC (micronucleated cells)” value ([7]; 0.05 µg/ml, without S9 mix) was 8.5 ± 0.7 per 1,000 and the “% PI (Proliferative Index)” value [7, 12] was 92.1%. The “MNC (micronucleated cells)” value [7, 12] was 9.5 ± 0.7 per 1,000, the “% PI (Proliferative Index)” value ([7]; 0.1 µg/ml, without S9 mix) was 78.5% and the “MNC (micronucleated cells)” value ([7]; 0.1 µg/ml, without S9 mix) was 11 ± 1.4 per 1,000. For the same molecule, the “% PI (Proliferative Index)” value [7, 13] was 89.2%, the “MNC (micronucleated cells)” value [7, 13] was 11.5 ± 2.1 per 1,000 and the “% PI (Proliferative Index)” value ([7]; 0.25 µg/ml, without S9 mix) was 56.1%. For the same molecule, the “MNC (micronucleated cells)” value ([7]; 0.25 µg/ml, without S9 mix) was 10 ± 1.4 per 1,000, the “% PI (Proliferative Index)” value ([7]; 0.5 µg/ml, with UVA/visible Irradiation) was “TOXIC” and the “% PI (Proliferative Index)” value ([7]; 0.5 µg/ml, without S9 mix) was “TOXIC”. For the same molecule, the “MNC (micronucleated cells)” value ([7]; 0.5 µg/ml, without S9 mix) was “TOXIC”, the “phototoxicity (in words)” value ([7]; UVA/visible light exposure) was “Slight phototoxicity” and the “Efflux detection method 5a4” value (S. epidermidis strains; […]) was “Negative”. For the same molecule, the “Efflux detection method 5a4” value (S. epidermidis strains; strain ATCC12228) was “Negative”, the “Efflux detection method 5a4” value (S. epidermidis strains; strain ATCC12228_EtBr) was “Positive” and the “Efflux detection method 5a4” value (S. epidermidis strains; strain BIOS-V24) was “Negative”. The “Efflux detection method 5a4” value (S. epidermidis strains; strain BIOS-V282) was “Positive”, the “fluorescence intensity (rank among derivatives)” value [8] was “maximum fluorescence intensity” and the MIC [9] was 2 µg/mL.
